Measured values taken from ChEMBL document CHEMBL1201862, “PubChem BioAssay data set” (2004).
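Step 1: Grow cells in 96-well plates. Step 2: Expose to compound for 48 hours at 5 concentrations. Step 3: Interpolate endpoints linearly; if unreached, use highest concentration. At the GI50, growth is halved.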 The source made the active and inactive calls. No stated cut-off is given here; in the data, active = GI50 up to about 1.1 µM and inactive = higher.

Experiments:
Test in all cases: NCI tumour cell line growth inhibition, 48 h
SR = system: SR
HL-60 = system: HL-60
OVCAR-4 = system: OVCAR-4
M14 = system: M14
ACHN = system: ACHN
T47D = system: T47D
SW-620 = system: SW-620
MDA-MB-231 = system: MDA-MB-231
KM-20L2 = system: KM-20L2
SK-MEL-28 = system: SK-MEL-28
A549 = system: A549
MDA-N = system: MDA-N
PC-3 = system: PC-3
HCT-116 = system: HCT-116
UACC-257 = system: UACC-257
UO-31 = system: UO-31
NCI-H23 = system: NCI-H23
SF-268 = system: SF-268
BT-549 = system: BT-549
RPMI-8226 = system: RPMI-8226

SMILES | GI50 (SR) | GI50 (HL-60) | GI50 (OVCAR-4) | GI50 (M14) | GI50 (ACHN) | GI50 (T47D) | GI50 (SW-620) | GI50 (MDA-MB-231) | GI50 (KM-20L2) | GI50 (SK-MEL-28) | GI50 (A549) | GI50 (MDA-N) | GI50 (PC-3) | GI50 (HCT-116) | GI50 (UACC-257) | GI50 (UO-31) | GI50 (NCI-H23) | GI50 (SF-268) | GI50 (BT-549) | GI50 (RPMI-8226)
O=C1/C(=C/c2ccccc2)CN(C(=O)OCc2ccccc2)C/C1=C\c1ccccc1 | 1.53 µM (inactive) | 1.79 µM (inactive) | 11.6 µM (inactive) | 8.07 µM (inactive) | 12.5 µM (inactive) | 41.4 µM (inactive) | 1.81 µM (inactive) | 17.8 µM (inactive) | 11.1 µM (inactive) | 11.5 µM (inactive) | 28.1 µM (inactive) | 3.06 µM (inactive) | 15 µM (inactive) | 0.345 µM (active) | 16 µM (inactive) | 14.6 µM (inactive) | 15.6 µM (inactive) | 13.8 µM (inactive) | 13.2 µM (inactive) | –
C/C(=N\NS(=O)(=O)c1ccc([N+](=O)[O-])cc1)c1ccc[n+]([O-])n1 | 3.92 µM (inactive) | 1.81 µM (inactive) | 1.35 µM (inactive) | 1.8 µM (inactive) | 2.44 µM (inactive) | – | 2.29 µM (inactive) | – | 4.48 µM (inactive) | 3.21 µM (inactive) | 2.19 µM (inactive) | – | – | 1.72 µM (inactive) | 3.8 µM (inactive) | 2.64 µM (inactive) | 1.7 µM (inactive) | 2.33 µM (inactive) | – | 2.16 µM (inactive)
CN(C)C(=O)OC(Cn1cncn1)c1ccc(Cl)cc1Cl (configuration not stated) | – | > 100 µM (inactive) | > 100 µM (inactive) | > 100 µM (inactive) | > 100 µM (inactive) | – | > 100 µM (inactive) | – | > 100 µM (inactive) | > 100 µM (inactive) | > 100 µM (inactive) | – | – | > 100 µM (inactive) | > 100 µM (inactive) | > 100 µM (inactive) | > 100 µM (inactive) | > 100 µM (inactive) | – | > 100 µM (inactive)
CC(C)/C=C1\CCC(CN2CCOCC2)C1=O (configuration not stated) | 3.75 µM (inactive) | 2.13 µM (inactive) | 20.8 µM (inactive) | 11.9 µM (inactive) | 18 µM (inactive) | – | 2.7 µM (inactive) | – | 20.1 µM (inactive) | 17.7 µM (inactive) | 26.3 µM (inactive) | – | – | 5.35 µM (inactive) | 7.78 µM (inactive) | 20.7 µM (inactive) | 17.4 µM (inactive) | 22.9 µM (inactive) | – | 0.964 µM (active)
CCCCCCCCCCCCCC(=S)N/C=C/OC | – | 16.1 µM (inactive) | 32.1 µM (inactive) | 35.3 µM (inactive) | 27.5 µM (inactive) | – | 35.5 µM (inactive) | – | 40.1 µM (inactive) | 41.7 µM (inactive) | 37.4 µM (inactive) | – | – | 30.5 µM (inactive) | 24.5 µM (inactive) | 31 µM (inactive) | 28.2 µM (inactive) | 43 µM (inactive) | – | 23.6 µM (inactive)
COC1OC(C)C(OC(=O)C(C)(C)C)C(OS(=O)(=O)c2ccc(C)cc2)C1OS(=O)(=O)c1ccc(C)cc1 (configuration not stated) | 15.4 µM (inactive) | > 100 µM (inactive) | > 100 µM (inactive) | > 100 µM (inactive) | > 100 µM (inactive) | – | > 100 µM (inactive) | – | > 100 µM (inactive) | > 100 µM (inactive) | > 100 µM (inactive) | – | – | > 100 µM (inactive) | > 100 µM (inactive) | > 100 µM (inactive) | > 100 µM (inactive) | > 100 µM (inactive) | – | > 100 µM (inactive)
CCCCNC(=NC#N)NCCCC | 78.7 µM (inactive) | – | > 100 µM (inactive) | > 100 µM (inactive) | > 100 µM (inactive) | – | 21.3 µM (inactive) | – | > 100 µM (inactive) | > 100 µM (inactive) | > 100 µM (inactive) | – | – | > 100 µM (inactive) | > 100 µM (inactive) | > 100 µM (inactive) | > 100 µM (inactive) | > 100 µM (inactive) | – | > 100 µM (inactive)
O=S(=O)(c1ccccc1)C1CN2OC1(S(=O)(=O)c1ccccc1)CC2c1ccc(Br)cc1 (configuration not stated) | – | > 100 µM (inactive) | 15.4 µM (inactive) | > 100 µM (inactive) | 45.4 µM (inactive) | – | > 100 µM (inactive) | – | > 100 µM (inactive) | > 100 µM (inactive) | > 100 µM (inactive) | – | – | > 100 µM (inactive) | 68.4 µM (inactive) | 37.9 µM (inactive) | > 100 µM (inactive) | 14.9 µM (inactive) | – | > 100 µM (inactive)
COc1ccc2c(c1OC)C(=O)C2 | > 100 µM (inactive) | > 100 µM (inactive) | > 100 µM (inactive) | > 100 µM (inactive) | > 100 µM (inactive) | – | > 100 µM (inactive) | – | > 100 µM (inactive) | > 100 µM (inactive) | > 100 µM (inactive) | – | – | > 100 µM (inactive) | > 100 µM (inactive) | > 100 µM (inactive) | > 100 µM (inactive) | > 100 µM (inactive) | – | > 100 µM (inactive)
COC1(C)CC2N(C(=O)c3ccccc3)N=C(c3ccccc3)CC2(C)O1 (configuration not stated) | – | > 100 µM (inactive) | > 100 µM (inactive) | > 100 µM (inactive) | > 100 µM (inactive) | – | > 100 µM (inactive) | – | > 100 µM (inactive) | – | > 100 µM (inactive) | – | – | > 100 µM (inactive) | > 100 µM (inactive) | > 100 µM (inactive) | – | > 100 µM (inactive) | – | 89.5 µM (inactive)
CCOC(=O)/N=C(\N)SCc1ccccc1 | 31.6 µM (inactive) | 50.9 µM (inactive) | > 100 µM (inactive) | > 100 µM (inactive) | > 100 µM (inactive) | – | > 100 µM (inactive) | – | > 100 µM (inactive) | > 100 µM (inactive) | > 100 µM (inactive) | – | – | > 100 µM (inactive) | > 100 µM (inactive) | > 100 µM (inactive) | > 100 µM (inactive) | > 100 µM (inactive) | – | 34.3 µM (inactive)
O=C1C(Cl)C(c2ccc(O)cc2)N1n1cnc2ccccc2c1=O (configuration not stated) | 18.8 µM (inactive) | 24.5 µM (inactive) | 25.5 µM (inactive) | 30.5 µM (inactive) | 16 µM (inactive) | – | 22.5 µM (inactive) | – | 58.9 µM (inactive) | 26.7 µM (inactive) | > 100 µM (inactive) | – | – | 17.1 µM (inactive) | 43.6 µM (inactive) | 55.1 µM (inactive) | 31 µM (inactive) | 45.6 µM (inactive) | – | 19 µM (inactive)
Cc1cc(C)nc(Nc2nc3cc([N+](=O)[O-])ccc3[nH]2)n1 | > 100 µM (inactive) | > 100 µM (inactive) | > 100 µM (inactive) | > 100 µM (inactive) | > 100 µM (inactive) | – | > 100 µM (inactive) | – | > 100 µM (inactive) | > 100 µM (inactive) | > 100 µM (inactive) | – | – | > 100 µM (inactive) | > 100 µM (inactive) | > 100 µM (inactive) | > 100 µM (inactive) | > 100 µM (inactive) | – | > 100 µM (inactive)
CCCCCCCCCCCOC(=S)NC(C)C | 20.5 µM (inactive) | 15.6 µM (inactive) | 24.8 µM (inactive) | 23.2 µM (inactive) | 19.3 µM (inactive) | – | 16.3 µM (inactive) | – | 16 µM (inactive) | 20.7 µM (inactive) | 21.4 µM (inactive) | – | – | 17.5 µM (inactive) | 19.1 µM (inactive) | 15.8 µM (inactive) | 19.3 µM (inactive) | 21.2 µM (inactive) | – | 14 µM (inactive)
COC1/C=C/O[C@@]2(C)Oc3c(C)c(O)c4c(O)c(cc(O)c4c3C2=O)NC(=O)/C(C)=C\C=C\[C@H](C)C(O)[C@@H](C)[C@@H](O)[C@@H](C)[C@H](OC(C)=O)[C@@H]1C (some centres not stated) | 6.15 µM (inactive) | – | 13.1 µM (inactive) | 16.1 µM (inactive) | 19.4 µM (inactive) | 17.7 µM (inactive) | – | 23.3 µM (inactive) | 13.3 µM (inactive) | 22.5 µM (inactive) | – | 14.5 µM (inactive) | 16 µM (inactive) | – | 13 µM (inactive) | 51.3 µM (inactive) | 13.5 µM (inactive) | 24.5 µM (inactive) | 18.5 µM (inactive) | –
O=C(/C=N/c1ccccc1[S-])c1ccco1.O=C(/C=N/c1ccccc1[S-])c1ccco1.[Zn+2] | 6.58 µM (inactive) | 3.56 µM (inactive) | – | 6.53 µM (inactive) | 5.46 µM (inactive) | – | 10.9 µM (inactive) | – | 15.3 µM (inactive) | 10.7 µM (inactive) | 3.98 µM (inactive) | – | – | 4.06 µM (inactive) | 12.5 µM (inactive) | 2.99 µM (inactive) | 5.41 µM (inactive) | 17.9 µM (inactive) | – | –
COc1ccc(C2Oc3ccc(O)cc3[C@@H]2C)cc1OC (some centres not stated) | – | 34.3 µM (inactive) | 97.7 µM (inactive) | > 100 µM (inactive) | > 100 µM (inactive) | – | > 100 µM (inactive) | – | > 100 µM (inactive) | > 100 µM (inactive) | > 100 µM (inactive) | – | – | > 100 µM (inactive) | > 100 µM (inactive) | 63.1 µM (inactive) | 94.6 µM (inactive) | > 100 µM (inactive) | – | 4.05 µM (inactive)
CCCC1(CC(=O)O)OCCc2c1[nH]c1ccccc21 (configuration not stated) [PRODOLIC ACID] | – | > 100 µM (inactive) | > 100 µM (inactive) | > 100 µM (inactive) | > 100 µM (inactive) | – | > 100 µM (inactive) | – | > 100 µM (inactive) | > 100 µM (inactive) | > 100 µM (inactive) | – | – | – | > 100 µM (inactive) | > 100 µM (inactive) | > 100 µM (inactive) | > 100 µM (inactive) | – | > 100 µM (inactive)
